Measurements from article PMC5128008, “Antimicrobial activity and stability of the D-amino acid substituted derivatives of antimicrobial peptide polybia-MPI” (AMB Express, 2016).
In brackets after ≈: the same amount, converted by molar mass. Where a SMILES comes first, the peptide text is derived from it. Where no end group is shown, it is not given here. [ ]: non-standard residue; d: D form.

Experiments:
[1] = system: Bacillus subtilis (ATCC23857); assay: MBC, plating after MIC incubation; assay type: cell-based; conditions: 50 µl aliquots from MIC wells onto agar plates, overnight 37 °C, lowest concentration reducing CFUs at least 99.9%
Protocol: (§1) The minimal inhibitory concentration (MIC) of the peptides was measured in triplicate by the standard broth microdilution method (Peterson et al. [1980]; Wang et al. [2012]). In brief, bacteria/fungi were cultured overnight to mid-logarithmic-phase in Mueller–Hinton broth (MHB)/Sabouraud dextrose broth. The cultures were diluted to a final concentration of 2 × 10^4 cfu/ml in fresh Mueller–Hinton broth (MHB)/Sabouraud dextrose broth. Each well of 96-well propylene microtitre plates was filled with 100 µl cell suspension and 100 μl peptide solution of twofold diluted serially. And the final concentrations of peptide mixtures ranged from 1 to 256 µM. Controls were done without peptides. After 18 h of incubation at 37 °C (bacteria)/35 °C (fungi), the minimal inhibitory concentration (MIC) of the peptides was evaluated by visible turbidity in each well.
(§2) The minimal bactericidal concentrations (MBCs) and minimum fungicidal concentration (MFCs) of the peptides was determined at the end of the incubation period by transferring 50 µl aliquots onto agar plates and incubated overnight at 37 °C/35 °C. The MBC/MFC was set as the lowest concentration of the number of CFUs that reduced at least 99.9%.

[2] = system: Staphylococcus aureus (ATCC29213); assay: MBC, plating after MIC incubation; assay type: cell-based; conditions: 50 µl aliquots from MIC wells onto agar plates, overnight 37 °C, lowest concentration reducing CFUs at least 99.9%
Protocol: as §1, §2

[3] = system: Pseudomonas aeruginosa (ATCC27853); assay: MBC, plating after MIC incubation; assay type: cell-based; conditions: 50 µl aliquots from MIC wells onto agar plates, overnight 37 °C, lowest concentration reducing CFUs at least 99.9%
Protocol: as §1, §2

E. coli (ATCC2592) = assay: MBC, plating after MIC incubation; assay type: cell-based; conditions: 50 µl aliquots from MIC wells onto agar plates, overnight 37 °C, lowest concentration reducing CFUs at least 99.9%
Protocol: as §1, §2

[4] = system: Staphylococcus epidermidis (ATCC 12228); assay: MBC, plating after MIC incubation; assay type: cell-based; conditions: 50 µl aliquots from MIC wells onto agar plates, overnight 37 °C, lowest concentration reducing CFUs at least 99.9%
Protocol: as §1, §2

sakazakii (ATCC 29544) [5] = assay: MBC, plating after MIC incubation; assay type: cell-based; conditions: 50 µl aliquots from MIC wells onto agar plates, overnight 37 °C, lowest concentration reducing CFUs at least 99.9%
Protocol: as §1, §2

[6] = system: E. coli (ML-35) (ATCC43827); assay: MBC, plating after MIC incubation; assay type: cell-based; conditions: 50 µl aliquots from MIC wells onto agar plates, overnight 37 °C, lowest concentration reducing CFUs at least 99.9%
Protocol: as §1, §2

(ATCC 700603) [7] = conditions: ATCC 700603, 18 h
C. krusei (ATCC 6258) = assay: MFC, plating after MIC incubation; assay type: cell-based; conditions: 50 µl aliquots from MIC wells onto agar plates, overnight 35 °C, lowest concentration reducing CFUs at least 99.9%
Protocol: as §1, §2

C. albicans (ATCC 14053) = assay: MFC, plating after MIC incubation; assay type: cell-based; conditions: 50 µl aliquots from MIC wells onto agar plates, overnight 35 °C, lowest concentration reducing CFUs at least 99.9%
Protocol: as §1, §2

C. glabrata (ATCC 2001) = assay: MFC, plating after MIC incubation; assay type: cell-based; conditions: 50 µl aliquots from MIC wells onto agar plates, overnight 35 °C, lowest concentration reducing CFUs at least 99.9%
Protocol: as §1, §2

[8] = system: C. parapsilosis (ATCC 22019); assay: MFC, plating after MIC incubation; assay type: cell-based; conditions: 50 µl aliquots from MIC wells onto agar plates, overnight 35 °C, lowest concentration reducing CFUs at least 99.9%
Protocol: as §1, §2

C.tropicalis (ATCC 750) = assay: MFC, plating after MIC incubation; assay type: cell-based; conditions: 50 µl aliquots from MIC wells onto agar plates, overnight 35 °C, lowest concentration reducing CFUs at least 99.9%
Protocol: as §1, §2

(ATCC 700603) [9] = conditions: ATCC 700603, 18 h; remark: listed apart in the source
trypsin = assay: RP-HPLC analysis of stability to trypsin; assay type: in vitro ADME; conditions: peptide 10 mM, trypsin 0.2 mg/ml, 37 °C, 0 and 360 min, TFA/acetonitrile precipitation, Fig. 7
Protocol: The stability of polybia-MPI and its analogues was assayed with trypsin or chymotrypsin in a volume ratio of 1:15 (peptide:trypsin) (Choi et al. [2013]; Hamamoto et al. [2002]; Molhoek et al. [2011]). Peptides at the concentration of 10 mM were incubated with trypsin or chymotrypsin (0.2 mg/ml) at 37 °C. 40 µl samples of the incubations were taken for the time of 0 and 360 min, respectively. Then, the samples were mixed with 80 µl of 15% trifluoroacetic acid (TFA) and 80 µl acetonitrile which incubated at 4 °C for at least 15 min to precipitate proteins. The supernatant was collected of each sample after centrifugation at 13,000 rpm for 10 min and were detected with reverse phase high performance liquid chromatography (RP-HPLC) analysis.
Fig. 7 HPLC analysis of the susceptibility of polybia-MPI, D-MPI and D-lys-MPI to trypsin and chymotrypsin. Peptides at the concentration of 10 mM were incubated with trypsin or chymotrypsin at 37 °C. At the determined time interval, samples were taken and mixed with trifluoroacetic acid (TFA) and acetonitrile to precipitate proteins, respectively. Then the samples were detected with reverse phase high performance liquid chromatography (RP-HPLC) analysis

[10] = system: Candida tropicalis (ATCC 750); assay: MIC, broth microdilution; assay type: cell-based; conditions: Sabouraud dextrose broth, 2 × 10^4 cfu/ml, peptide 1 to 256 µM, 18 h, 35 °C, visible turbidity, triplicate
Protocol: as §1

[11] = system: Staphylococcus aureus (ATCC 29213); assay: MIC, broth microdilution; assay type: cell-based; conditions: Mueller–Hinton broth, 2 × 10^4 cfu/ml, peptide 1 to 256 µM, 18 h, 37 °C, visible turbidity, triplicate
Protocol: as §1

[12] = system: Bacillus subtilis (ATCC 23857); assay: MIC, broth microdilution; assay type: cell-based; conditions: Mueller–Hinton broth, 2 × 10^4 cfu/ml, peptide 1 to 256 µM, 18 h, 37 °C, visible turbidity, triplicate
Protocol: as §1

[13] = system: Pseudomonas aeruginosa (ATCC 27853); assay: MIC, broth microdilution; assay type: cell-based; conditions: Mueller–Hinton broth, 2 × 10^4 cfu/ml, peptide 1 to 256 µM, 18 h, 37 °C, visible turbidity, triplicate
Protocol: as §1

[14] = system: Candida albicans ATCC (ATCC 14053); assay: MIC, broth microdilution; assay type: cell-based; conditions: Candida albicans (ATCC 14053), Sabouraud dextrose broth, 2 × 10^4 cfu/ml, peptide 1 to 256 µM, 18 h, 35 °C, visible turbidity, triplicate
Protocol: as §1

[15] = system: Candida glabrata ATCC (ATCC 2001); assay: MIC, broth microdilution; assay type: cell-based; conditions: Candida glabrata (ATCC 2001), Sabouraud dextrose broth, 2 × 10^4 cfu/ml, peptide 1 to 256 µM, 18 h, 35 °C, visible turbidity, triplicate
Protocol: as §1

E. coli (ATCC 2592) = assay: MIC, broth microdilution; assay type: cell-based; conditions: Mueller–Hinton broth, 2 × 10^4 cfu/ml, peptide 1 to 256 µM, 18 h, 37 °C, visible turbidity, triplicate
Protocol: as §1

[16] = system: Staphylococcus epidermidis (ATCC 12228); assay: MIC, broth microdilution; assay type: cell-based; conditions: Mueller–Hinton broth, 2 × 10^4 cfu/ml, peptide 1 to 256 µM, 18 h, 37 °C, visible turbidity, triplicate
Protocol: as §1

sakazakii (ATCC 29544) [17] = assay: MIC, broth microdilution; assay type: cell-based; conditions: Mueller–Hinton broth, 2 × 10^4 cfu/ml, peptide 1 to 256 µM, 18 h, 37 °C, visible turbidity, triplicate
Protocol: as §1

[18] = system: E. coli (ML-35) (ATCC 43827); assay: MIC, broth microdilution; assay type: cell-based; conditions: Mueller–Hinton broth, 2 × 10^4 cfu/ml, peptide 1 to 256 µM, 18 h, 37 °C, visible turbidity, triplicate
Protocol: as §1

[19] = system: Candida krusei (ATCC 6258); assay: MIC, broth microdilution; assay type: cell-based; conditions: Sabouraud dextrose broth, 2 × 10^4 cfu/ml, peptide 1 to 256 µM, 18 h, 35 °C, visible turbidity, triplicate
Protocol: as §1

[20] = system: Candida parapsilosis (ATCC 22019); assay: MIC, broth microdilution; assay type: cell-based; conditions: Sabouraud dextrose broth, 2 × 10^4 cfu/ml, peptide 1 to 256 µM, 18 h, 35 °C, visible turbidity, triplicate
Protocol: as §1

`CC[C@H](C)[C@H](N)C(=O)N[C@@H](CC(=O)O)C(=O)N[C@@H](Cc1c[nH]c2ccccc12)C(=O)N[C@H](CCCCN)C(=O)N[C@H](CCCCN)C(=O)N[C@@H](CC(C)C)C(=O)N[C@@H](CC(C)C)C(=O)N[C@@H](CC(=O)O)C(=O)N[C@@H](C)C(=O)N[C@@H](C)C(=O)N[C@H](CCCCN)C(=O)N[C@@H](CCC(N)=O)C(=O)N[C@H](C(=O)N[C@@H](CC(C)C)C(N)=O)[C@@H](C)CC` [D-lys-MPI] (H-IDW[dK][dK]LLDAA[dK]QIL-NH2) was tested, and the MBC/MFC [1] was greater than 256 µM, the MBC/MFC [2] was greater than 256 µM and the MBC/MFC [3] was greater than 256 µM. For the same molecule, the MBC/MFC (E. coli (ATCC2592)) was greater than 256 µM, the MBC/MFC [4] was greater than 256 µM and the MBC/MFC (sakazakii (ATCC 29544) [5]) was greater than 256 µM. It also gave an MBC/MFC [6] greater than 256 µM, an MIC ((ATCC 700603) [7]) greater than 256 µM and an MBC/MFC (C. krusei (ATCC 6258)) of 256 µM (≈ 423 µg/mL). For the same molecule, the MBC/MFC (C. albicans (ATCC 14053)) was greater than 256 µM, the MBC/MFC (C. glabrata (ATCC 2001)) was 256 µM (≈ 423 µg/mL) and the MBC/MFC [8] was greater than 256 µM. The MBC/MFC (C.tropicalis (ATCC 750)) was 128 µM (≈ 212 µg/mL), the MBC/MFC ((ATCC 700603) [9]) was greater than 256 µM and the “susceptibility to trypsin by HPLC profile” value (trypsin) was “not or only partly degraded”. The MIC [10] was 64 µM (≈ 106 µg/mL), the MIC [11] was greater than 256 µM and the MIC [12] was greater than 256 µM. The MIC [13] was greater than 256 µM, the MIC [14] was 256 µM (≈ 423 µg/mL) and the MIC [15] was 128 µM (≈ 212 µg/mL). For the same molecule, the MIC (E. coli (ATCC 2592)) was greater than 256 µM, the MIC [16] was 256 µM (≈ 423 µg/mL) and the MIC (sakazakii (ATCC 29544) [17]) was greater than 256 µM. For the same molecule, the MIC [18] was greater than 256 µM, the MIC [19] was 128 µM (≈ 212 µg/mL) and the MIC [20] was greater than 256 µM.
IDWKKLLDAAKQIL-NH2 [Polybia-MPI] was tested, and the MBC/MFC [1] was 8 µM, the MBC/MFC [2] was 128 µM and the MBC/MFC [3] was greater than 256 µM. The MBC/MFC (E. coli (ATCC2592)) was 32 µM, the MBC/MFC [4] was 32 µM and the MBC/MFC (sakazakii (ATCC 29544) [5]) was 64 µM. For the same molecule, the MBC/MFC [6] was 256 µM, the MIC ((ATCC 700603) [7]) was 64 µM and the MBC/MFC (C. krusei (ATCC 6258)) was 16 µM. The MBC/MFC (C. albicans (ATCC 14053)) was 16 µM, the MBC/MFC (C. glabrata (ATCC 2001)) was 32 µM and the MBC/MFC [8] was 128 µM. The MBC/MFC (C.tropicalis (ATCC 750)) was 32 µM, the MBC/MFC ((ATCC 700603) [9]) was 256 µM and the “susceptibility to trypsin by HPLC profile” value (trypsin) was “susceptible”. The MIC [10] was 8 µM, the MIC [11] was 32 µM and the MIC [12] was 8 µM. The MIC [13] was 128 µM, the MIC [14] was 16 µM and the MIC [15] was 8 µM. For the same molecule, the MIC (E. coli (ATCC 2592)) was 32 µM, the MIC [16] was 32 µM and the MIC (sakazakii (ATCC 29544) [17]) was 64 µM. It also gave an MIC [18] of 32 µM, an MIC [19] of 8 µM and an MIC [20] of 64 µM.
